In ChEMBL document CHEMBL1131078, “Small molecular probes for G-protein-coupled C5a receptors: conformationally constrained antagonists derived from the C terminus of the human plasma protein C5a” (J Med Chem, 1998):
Activity calls are given as the source filed them. The calls are words filed in the database; no cut-off is given here. Where a SMILES comes first, the peptide text is derived from it.

Legend:
Homo sapiens = species on record: Homo sapiens; assay: Agonist activity at dose range 0.1 nM to 1 mM in human PMNs; No agonistic activity; format: functional
[1] = molecular target: T1, C5a anaphylatoxin chemotactic receptor 1 (Homo sapiens, UniProt P21730); assay: 50% reduction in binding of [125I]C5a to human polymorphonuclear cells (PMNs); format: cell-based, PMN
T1 sequence (P21730 whole entry): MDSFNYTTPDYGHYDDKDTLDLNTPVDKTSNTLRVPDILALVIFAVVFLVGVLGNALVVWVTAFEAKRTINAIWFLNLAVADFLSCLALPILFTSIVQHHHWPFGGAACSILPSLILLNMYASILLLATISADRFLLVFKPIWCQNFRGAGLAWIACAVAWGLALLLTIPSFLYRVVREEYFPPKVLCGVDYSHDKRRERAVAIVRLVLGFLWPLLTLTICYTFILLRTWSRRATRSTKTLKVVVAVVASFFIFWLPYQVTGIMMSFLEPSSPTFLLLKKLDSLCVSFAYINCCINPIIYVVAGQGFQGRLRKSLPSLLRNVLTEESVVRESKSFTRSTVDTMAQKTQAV

[2] = molecular target: T1, C5a anaphylatoxin chemotactic receptor 1; assay: 50% reduction in myeloperoxidase secretion from human PMNs mediated by 100 nM C5a

Row | SMILES | Agonistic activity (Homo sapiens) | further results
1 | CC(=O)N[C@@H](Cc1ccccc1)C(=O)N[C@H]1CCCCNC(=O)[C@H](CCCN=C(N)N)NC(=O)[C@H](Cc2c[nH]c3ccccc23)NC(=O)[C@@H](CC2CCCCC2)NC(=O)[C@@H]2CCCN2C1=O | inactive | –
2 | CC[C@H](C)[C@H](N)C(=O)N[C@@H](CO)C(=O)N[C@@H](Cc1cnc[nH]1)C(=O)N[C@@H](CCCCN)C(=O)N[C@@H](CC(=O)O)C(=O)N[C@@H](CCSC)C(=O)N[C@@H](CCC(N)=O)C(=O)N[C@@H](CC(C)C)C(=O)NCC(=O)N[C@@H](CCCNC(=N)N)C(=O)O (H-ISHKDMQLGR-OH) | – | IC50 [1]: > 1000 µM
3 | CN[C@@H](Cc1ccccc1)C(=O)N[C@@H](CCCCN)C(=O)N1CCC[C@H]1C(=O)N[C@@H](CC1CCCCC1)C(=O)N[C@@H](Cc1c[nH]c2ccccc12)C(=O)N[C@@H](CCCN=C(N)N)C(=O)O | inactive | –
4 | CN[C@@H](Cc1ccccc1)C(=O)N[C@@H](CCCCN)C(=O)N1CCC[C@H]1C(=O)N[C@H](CC1CCCCC1)C(=O)N[C@@H](Cc1c[nH]c2ccccc12)C(=O)N[C@@H](CCCN=C(N)N)C(=O)O | inactive | –
5 | CN[C@@H](Cc1ccccc1)C(=O)N[C@@H](CCCCN)C(=O)N1CCC[C@H]1C(=O)N[C@H](CC1CCCCC1)C(=O)N[C@@H](Cc1c[nH]c2ccccc12)C(=O)N[C@H](CCCN=C(N)N)C(N)=O | inactive | –
6 | CN[C@@H](Cc1ccccc1)C(=O)N[C@@H](CCCCN)C(=O)N1CCC[C@H]1C(=O)N[C@@H](CC(C)C)C(=O)N[C@@H](Cc1c[nH]c2ccccc12)C(=O)N[C@@H](CCCN=C(N)N)C(=O)O (HELM PEPTIDE1{[meF].K.P.L.W.R}$$$$V2.0) | – | IC50 [2]: > 1000 µM
7 | CC(=O)N[C@@H](Cc1ccccc1)C(=O)N[C@H]1CCCNC(=O)[C@@H](CCCN=C(N)N)NC(=O)[C@H](Cc2c[nH]c3ccccc23)NC(=O)[C@@H](CC2CCCCC2)NC(=O)[C@@H]2CCCN2C1=O | inactive | –
